{"source": "PubChem BioAssay AID1259409", "about": "(Chemical Carcinogenesis Research Information System (CCRIS), 2018)", "origin": "cited, not measured here", "system": "rodent chemically induced tumor inhibition, incidence and multiplicity", "assay": "CCRIS tumor inhibitor studies", "settings": "Promoter: NONE USED"}
{"smiles": "CC/C(=C(\\c1ccccc1)c1ccc(OCCN(C)C)cc1)c1ccccc1", "values": [{"measurement": "tumour outcome (control, treated, inhibition, significance)", "setting": "Carcinogen: N-METHYL-N-NITROSOUREA, 684-93-5, Dose [Inhibitor]: 50 UG DISSOLVED IN SMALL VOLUME OF ETHANOL AND DILUTED IN 1% GELATIN-0.9% NACL TO INJECTION VOLUME OF 0.2 ML, DAILY STAR, Route [Inhibitor]: INJECTION, Species: RAT, Strain/Sex: SPRAGUE-DAWLEY/FEMALE, Target Tissue: Type of Lesion: MAMMARY GLAND: TUMOR, Dose [Carcinogen]: 5 MG/100 G BW AT 0, 4 AND 8 WK OF STUDY STARTING SIMULTANEOUSLY WITH AGENT TREATMENT", "value": "86%, 9%, 90%, not calculated"}, {"measurement": "tumour outcome (control, treated, inhibition, significance)", "setting": "Carcinogen: N-NITROSO-N-METHYLUREA, 684-93-5, Dose [Inhibitor]: 0, 0.5 MG/KG OF DIET FOR 3 MO BEGINNING 1 WK POST CARCINOGEN DOSE (STUDY DURATION: 100 D), Route [Inhibitor]: ORAL, Species: RAT, Strain/Sex: SPRAGUE-DAWLEY/FEMALE, Target Tissue: Type of Lesion: MAMMARY GLAND: TUMOR, Dose [Carcinogen]: 50 MG/KG BW ONCE", "value": "100%, 75%, 25%, p=0.03"}, {"measurement": "tumour outcome (control, treated, inhibition, significance)", "setting": "Carcinogen: N-NITROSO-N-METHYLUREA, 684-93-5, Dose [Inhibitor]: 0, 0.5 MG/KG OF DIET FOR 4.5 MO BEGINNING 1 WK POST CARCINOGEN DOSE (STUDY DURATION: 100 D), Route [Inhibitor]: ORAL, Species: RAT, Strain/Sex: SPRAGUE-DAWLEY/FEMALE, Target Tissue: Type of Lesion: MAMMARY GLAND: TUMOR, Dose [Carcinogen]: 50 MG/KG BW ONCE", "value": "96%, 50%, 48%, p=0.003"}, {"measurement": "tumour outcome (control, treated, inhibition, significance)", "setting": "Carcinogen: N-NITROSO-N-METHYLUREA, 684-93-5, Dose [Inhibitor]: 0, 1 MG/KG OF DIET FOR 4.5 MO BEGINNING 1 WK POST CARCINOGEN DOSE (STUDY DURATION: 100 D), Route [Inhibitor]: ORAL, Species: RAT, Strain/Sex: SPRAGUE-DAWLEY/FEMALE, Target Tissue: Type of Lesion: MAMMARY GLAND: TUMOR, Dose [Carcinogen]: 50 MG/KG BW ONCE", "value": "96%, 42%, 56%, p<0.001"}, {"measurement": "tumour outcome (control, treated, inhibition, significance)", "setting": "Carcinogen: NONE USED, Dose [Inhibitor]: 0, 125 UG/D FROM SUSTAINED RELEASE SILASTIC CAPSULES ADMINISTERED TO OVARIECTOMIZED MICE FOR 17 MO BEGINNING AT 3 MO OF, Route [Inhibitor]: IMPLANT, Species: MOUSE, Strain/Sex: C3H/OUJ/FEMALE, Target Tissue: Type of Lesion: MAMMARY GLAND: TUMOR", "value": "50%, 22%, 56%, p<0.003"}, {"measurement": "tumour outcome (control, treated, inhibition, significance)", "setting": "Carcinogen: NONE USED, Dose [Inhibitor]: 0, 125 UG/D FROM SUSTAINED RELEASE SILASTIC CAPSULES FOR 3 MO BEGINNING AT 4 MO OF AGE (STUDY DURATION: 18 MO), Route [Inhibitor]: IMPLANT, Species: MOUSE, Strain/Sex: C3H/OUJ/FEMALE, Target Tissue: Type of Lesion: MAMMARY GLAND: TUMOR", "value": "100%, 20%, 80%, p<0.001"}, {"measurement": "tumour outcome (control, treated, inhibition, significance)", "setting": "Carcinogen: NONE USED, Dose [Inhibitor]: 0, 125 UG/D FROM SUSTAINED RELEASE SILASTIC CAPSULES FOR 6 MO BEGINNING AT 3 MO OF AGE (STUDY DURATION: 18 MO), Route [Inhibitor]: IMPLANT, Species: MOUSE, Strain/Sex: C3H/OUJ/FEMALE, Target Tissue: Type of Lesion: MAMMARY GLAND: TUMOR", "value": "100%, 26%, 74%, p<0.001"}, {"measurement": "tumour outcome (control, treated, inhibition, significance)", "setting": "Carcinogen: NONE USED, Dose [Inhibitor]: 0, 125 UG/D FROM SUSTAINED RELEASE SILASTIC CAPSULES FOR 12 MO BEGINNING AT 3 MO OF AGE (STUDY DURATION: 18 MO), Route [Inhibitor]: IMPLANT, Species: MOUSE, Strain/Sex: C3H/OUJ/FEMALE, Target Tissue: Type of Lesion: MAMMARY GLAND: TUMOR", "value": "100%, 24%, 76%, p<0.001"}, {"measurement": "tumour outcome (control, treated, inhibition, significance)", "setting": "Carcinogen: NONE USED, Dose [Inhibitor]: 0, 125 UG/D FROM SUSTAINED RELEASE SILASTIC CAPSULES FOR 17 MO BEGINNING AT 3 MO OF AGE (STUDY DURATION: 27 MO), Route [Inhibitor]: IMPLANT, Species: MOUSE, Strain/Sex: C3H/OUJ/FEMALE, Target Tissue: Type of Lesion: MAMMARY GLAND: TUMOR", "value": "100%, 20%, 80%, p<0.003"}, {"measurement": "tumour outcome (control, treated, inhibition, significance)", "setting": "Carcinogen: PROGESTERONE, 57-83-0, Dose [Inhibitor]: 0, 125 UG/D FROM SUSTAINED RELEASE SILASTIC CAPSULES FOR 3 MO PRIOR TO CARCINOGEN TREATMENT (STUDY DURATION: 18 MO), Route [Inhibitor]: IMPLANT, Species: MOUSE, Strain/Sex: C3H/OUJ/FEMALE, Target Tissue: Type of Lesion: MAMMARY GLAND: TUMOR, Dose [Carcinogen]: 20 MG ADMINISTERED IN SUSTAINED RELEASE SILASTIC CAPSULES FOR A ONE MO DURATION EVERY OTHER MO", "value": "100%, 92%, 8%, not significant"}, {"measurement": "tumour outcome (control, treated, inhibition, significance)", "setting": "Carcinogen: PROGESTERONE, 57-83-0, Dose [Inhibitor]: 0, 125 UG/D FROM SUSTAINED RELEASE SILASTIC CAPSULES FOR 6 MO PRIOR TO CARCINOGEN TREATMENT (STUDY DURATION: 18 MO), Route [Inhibitor]: IMPLANT, Species: MOUSE, Strain/Sex: C3H/OUJ/FEMALE, Target Tissue: Type of Lesion: MAMMARY GLAND: TUMOR, Dose [Carcinogen]: 20 MG ADMINISTERED IN SUSTAINED RELEASE SILASTIC CAPSULES FOR A ONE MO DURATION EVERY OTHER MO", "value": "100%, 52%, 48%, p<0.002"}, {"measurement": "tumour outcome (control, treated, inhibition, significance)", "setting": "Carcinogen: PROGESTERONE, 57-83-0, Dose [Inhibitor]: 0, 125 UG/D FROM SUSTAINED RELEASE SILASTIC CAPSULES FOR 12 MO BEGINNING AT 3 MO OF AGE (STUDY DURATION: 21 MO), Route [Inhibitor]: IMPLANT, Species: MOUSE, Strain/Sex: C3H/OUJ/FEMALE, Target Tissue: Type of Lesion: MAMMARY GLAND: TUMOR, Dose [Carcinogen]: 20 MG ADMINISTERED IN SUSTAINED RELEASE SILASTIC CAPSULES GIVEN FOR A ONE MONTH DURATION EVERY OTHER MO BEGINNING AT 3 M", "value": "100%, 88%, 12%, not significant"}, {"measurement": "tumour outcome (control, treated, inhibition, significance)", "setting": "Carcinogen: SUBCUTANEOUS IMPLANT, Dose [Inhibitor]: ZERANOL, 26538-44-3, Route [Inhibitor]: 0, 5 MG 2/WK TO DAY 32 THEN 1/WK TO DAY 202 (STUDY DURATION: 202 D), Species: HAMSTER, Strain/Sex: SUBCUTANEOUS, Target Tissue: Type of Lesion: LIVER: HEPATOCELLULAR ADENOMA, Dose [Carcinogen]: NONE USED", "value": "56%, 0%, 100%, not calculated"}, {"measurement": "tumour outcome (control, treated, inhibition, significance)", "setting": "Carcinogen: ZERANOL, 26538-44-3, Dose [Inhibitor]: 0, 5 MG 2/WK TO DAY 32 THEN 1/WK TO DAY 202 (STUDY DURATION: 202 D), Route [Inhibitor]: SUBCUTANEOUS, Species: HAMSTER, Strain/Sex: ARMENIAN/FEMALE, Target Tissue: Type of Lesion: LIVER: HEPATOCELLULAR ADENOMA, Dose [Carcinogen]: 36 MG IMPLANTED ON DAYS 0 AND 94", "value": "57%, 0%, 100%, not calculated"}, {"measurement": "tumour outcome (control, treated, inhibition, significance)", "setting": "Carcinogen: ZERANOL, 26538-44-3, Dose [Inhibitor]: 0, 5 MG 2/WK TO DAY 32 THEN 1/WK TO DAY 202 (STUDY DURATION: 202 D), Route [Inhibitor]: SUBCUTANEOUS, Species: HAMSTER, Strain/Sex: ARMENIAN/FEMALE, Target Tissue: Type of Lesion: LIVER: HEPATOCELLULAR CARCINOMA, Dose [Carcinogen]: 36 MG IMPLANTED ON DAYS 0 AND 94", "value": "6/7 (86%), 0/4 (0%), 100%, not calculated"}, {"measurement": "tumour outcome (control, treated, inhibition, significance)", "setting": "Carcinogen: ZERANOL, 26538-44-3, Dose [Inhibitor]: 0, 5 MG 2/WK TO DAY 32 THEN 1/WK TO DAY 202 (STUDY DURATION: 202 D), Route [Inhibitor]: SUBCUTANEOUS, Species: HAMSTER, Strain/Sex: ARMENIAN/MALE, Target Tissue: Type of Lesion: LIVER: HEPATOCELLULAR CARCINOMA, Dose [Carcinogen]: 36 MG IMPLANTED ON DAYS 0 AND 94", "value": "3/9 (33%), 0/4 (0%), 100%, not calculated"}]}
